This is an account of results in US8759481B2, “Peptide vaccines for cancers expressing tumor-associated antigens” (Oncotherapy Science, Inc., priority 2007, dated 2014).

Assay [1] has as its system peptide-pulsed A24-LCL cells. Description: IFN-gamma ELISPOT assay (positive wells). It counts as cell-based, human. The conditions noted are these: HLA-A*2402, 9-mer peptides derived from INHBB; positive/total wells. In short, it runs like this: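 PBMC-derived DCs from HLA-A*2402 and/or A*0201 donors, pulsed with 20 micro g/ml peptide plus 3 micro g/ml beta 2-microglobulin, stimulated autologous CD8+ T cells three times (days 0, 7, 14). On day 21, responders were tested against peptide-pulsed A24-LCL or T2 cells by IFN-gamma ELISPOT. Values are reported as positive wells/wells tested; CTL lines confirmed by ELISA.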

In another assay the test system is peptide-pulsed T2 cells. Kind of assay: CTL line establishment, IFN-gamma ELISA. It counts as cell-based, human. The conditions noted are these: HLA-A*0201, 9-mer peptides derived from INHBB; CTL lines/positive wells. In short, it runs like this:
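CTLs expanded with MMC-inactivated B-lymphoblastoid lines, 40 ng/ml anti-CD3 and IL-2 (120 IU/ml day 1, then 30 IU/ml on days 5, 8, 11). Peptide-pulsed T2 or A24-LCL stimulators (1×10^4/well) incubated with cultured wells or limiting-dilution clones as responders; IFN-gamma detected by ELISPOT (positive wells) and ELISA (established CTL lines).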
(ELISA stands for enzyme-linked immunosorbent assay.)

For VQCDSCQEL, the positive well number in assay [1] was 0/8. For the same sequence, the “positive CTL line” value with peptide-pulsed T2 cells is recorded as 0/1.
